From patent US12077503B2, “Substituted cyclic amides and their use as herbicides” (FMC CORPORATION, priority 2015, dated 2024)
Where two headings read alike, the source gives them in different places.

How the values were obtained:
[1] = system: ragweed (common ragweed, Ambrosia elatior); assay: Test A preemergence; type: in vivo; conditions: Ambrosia artemisiifolia, pre-emergence, 240 h, preemergence; for pest or weed control at 125 g/ha: 125 g ai/ha; for pest or weed control at 500 g/ha: 500 g ai/ha
Procedure, shortened: (§1)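 Visual injury, scored on a 0–100 scale relative to untreated controls, was recorded about 10 d after application. Treatments were a preemergence soil spray over planted seeds or a postemergence spray on plants at the one- to two-leaf stage, 2 to 10 cm tall, all in loam soil–sand blend in the greenhouse.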

[2] = system: ryegrass, Italian (Italian ryegrass, Lolium multiflorum); assay: Test A preemergence; type: in vivo; conditions: Lolium multiflorum, pre-emergence, 240 h, preemergence; for pest or weed control at 125 g/ha: 125 g ai/ha; for pest or weed control at 500 g/ha: 500 g ai/ha
Procedure, shortened: as §1

[3] = system: giant foxtail (Setaria faberii); assay: Test A preemergence; type: in vivo; conditions: Setaria faberi, pre-emergence, 240 h, preemergence; for pest or weed control at 125 g/ha: 125 g ai/ha; for pest or weed control at 500 g/ha: 500 g ai/ha
Procedure, shortened: as §1

[4] = system: pigweed (Amaranthus retroflexus); assay: Test A preemergence; type: in vivo; conditions: Amaranthus retroflexus, pre-emergence, 240 h, preemergence; for pest or weed control at 125 g/ha: 125 g ai/ha; for pest or weed control at 500 g/ha: 500 g ai/ha
[5] = system: barnyardgrass (Echinochloa crus-galli); assay: Test A preemergence; type: in vivo; conditions: Echinochloa crus-galli, pre-emergence, 240 h, preemergence; for pest or weed control at 125 g/ha: 125 g ai/ha; for pest or weed control at 500 g/ha: 500 g ai/ha
Procedure, shortened: as §1

[6] = 0 to 100 scale where 0 is no effect and 100 is complete control, read-out: Foxtail, Giant plant response rating
[7] = 0 to 100 scale where 0 is no effect and 100 is complete control, read-out: Pigweed plant response rating
[8] = 0 to 100 scale where 0 is no effect and 100 is complete control, read-out: Barnyardgrass plant response rating

CN1CC(c2cccc(OC/C=C/Cl)c2)C(C(=O)Nc2cccc(F)c2F)C1=O (stereo not drawn) [Compound 772]
pest or weed control at 125 g/ha ([1]; visual rating after approx. 10 d, 0 to 100 scale where 0 is no effect and 100 is complete control, read-out: Plant response rating, Ragweed): 0%
pest or weed control at 500 g/ha ([1]; 0 to 100 scale, 0 = no effect, 100 = complete control, read-out: Plant response rating, Ragweed): 0%
pest or weed control at 125 g/ha ([2]; visual rating after approx. 10 d, 0 to 100 scale where 0 is no effect and 100 is complete control, read-out: Plant response rating, Ryegrass, Italian): 0%
pest or weed control at 125 g/ha ([3]; visual rating after approx. 10 d, 0 to 100 scale where 0 is no effect and 100 is complete control, read-out: Plant response rating, Foxtail, Giant): 50%
pest or weed control at 500 g/ha ([3]; 0 to 100 scale, 0 = no effect, 100 = complete control, read-out: Plant response rating, Foxtail, Giant): 90%
pest or weed control at 125 g/ha ([4]; visual rating after approx. 10 d, 0 to 100 scale where 0 is no effect and 100 is complete control, read-out: Plant response rating, Pigweed): 0%
pest or weed control at 500 g/ha ([4]; 0 to 100 scale, 0 = no effect, 100 = complete control, read-out: Plant response rating, Pigweed): 0%
pest or weed control at 125 g/ha ([5]; visual rating after approx. 10 d, 0 to 100 scale where 0 is no effect and 100 is complete control, read-out: Plant response rating, Barnyardgrass): 0%
pest or weed control at 500 g/ha ([5]; 0 to 100 scale, 0 = no effect, 100 = complete control, read-out: Plant response rating, Barnyardgrass): 40%
melting point: 146 to 150 °C

O=C1NC[C@H](c2cccc(C(F)(F)F)n2)[C@H]1C(=O)Nc1ccccc1F [Compound 940]
pest or weed control at 500 g/ha ([1]; visual injury rating about 10 d after treatment, 0 to 100 scale (0 no effect, 100 complete control), read-out: Ragweed plant response rating): 0%
pest or weed control at 500 g/ha ([2]; visual injury rating about 10 d after treatment, 0 to 100 scale (0 no effect, 100 complete control), read-out: Ryegrass, Italian plant response rating): 0%
pest or weed control at 125 g/ha [3, 6]: 40%
pest or weed control at 500 g/ha ([3]; visual injury rating about 10 d after treatment, 0 to 100 scale (0 no effect, 100 complete control), read-out: Foxtail, Giant plant response rating): 90%
pest or weed control at 125 g/ha [4, 7]: 0%
pest or weed control at 500 g/ha ([4]; visual injury rating about 10 d after treatment, 0 to 100 scale (0 no effect, 100 complete control), read-out: Pigweed plant response rating): 0%
pest or weed control at 125 g/ha [5, 8]: 30%
pest or weed control at 500 g/ha ([5]; visual injury rating about 10 d after treatment, 0 to 100 scale (0 no effect, 100 complete control), read-out: Barnyardgrass plant response rating): 70%
melting point: 164 to 167 °C

O=C1NC[C@H](c2nccc(C(F)(F)F)n2)[C@H]1C(=O)Nc1ccccc1F [Compound 1304]
pest or weed control at 125 g/ha ([1]; visual injury rating, 0 to 100 scale where 0 is no effect and 100 is complete control, approximately 10 d, read-out: Ragweed plant response rating): 0%
pest or weed control at 500 g/ha ([1]; 0 to 100 scale where 0 is no effect and 100 is complete control, read-out: Ragweed plant response rating): 0%
pest or weed control at 125 g/ha ([2]; visual injury rating, 0 to 100 scale where 0 is no effect and 100 is complete control, approximately 10 d, read-out: Ryegrass, Italian plant response rating): 0%
pest or weed control at 500 g/ha ([2]; 0 to 100 scale where 0 is no effect and 100 is complete control, read-out: Ryegrass, Italian plant response rating): 0%
pest or weed control at 125 g/ha ([3]; visual injury rating, 0 to 100 scale where 0 is no effect and 100 is complete control, approximately 10 d, read-out: Foxtail, Giant plant response rating): 0%
pest or weed control at 500 g/ha [3, 6]: 0%
pest or weed control at 125 g/ha ([4]; visual injury rating, 0 to 100 scale where 0 is no effect and 100 is complete control, approximately 10 d, read-out: Pigweed plant response rating): 0%
pest or weed control at 500 g/ha [4, 7]: 0%
pest or weed control at 125 g/ha ([5]; visual injury rating, 0 to 100 scale where 0 is no effect and 100 is complete control, approximately 10 d, read-out: Barnyardgrass plant response rating): 0%
pest or weed control at 500 g/ha [5, 8]: 0%
melting point: 166 to 170 °C
